Measurements reported in patent US20090137572A1, “2-substituted-4-heteroaryl-pyrimidines useful for the treatment of proliferative disorders” (priority 2004, published 2009).

Tests used:
CDK2-cycline E = CDK2-cycline E (Homo sapiens, UniProt P24941); assay: Kinase assay (radioactive phosphate incorporation), CDK2-cyclin E; format: biochemical; conditions: read-out: Kinase Inhibition pIC50 CDK2-cycline E (converted)
Method: Kinase assays. The compounds of the invention above were investigated for their ability to inhibit the enzymatic activity of various protein kinases (Table 2). This was achieved by measurement of incorporation of radioactive phosphate from ATP into appropriate polypeptide substrates. Recombinant protein kinases and kinase complexes were produced or obtained commercially. Assays were performed using 96-well plates and appropriate assay buffers (typically 25 mM β-glycerophosphate, 20 mM MOPS, 5 mM EGTA, 1 mM DTT, 1 mM […], pH 7.4), into which were added 2-4 μg of active enzyme with appropriate substrates. The reactions were initiated by addition of Mg/ATP mix (15 mM MgCl2+100 μM ATP with 30-50 kBq per well of [γ-^32P]-ATP) and mixtures incubated as required at 30° C. Reactions were stopped on ice, followed by filtration through p81 filterplates or GF/C filterplates (Whatman Polyfiltronics, Kent, UK). After washing 3 times with 75 mM aq orthophosphoric acid, plates were dried, scintillant added and incorporated radioactivity measured in a scintillation counter (TopCount, Packard Instruments, Pangbourne, Berks, UK). Compounds for kinase assay were made up as 10 mM stocks in DMSO and diluted into 10% DMSO in assay buffer.

Aurora A kinase = biological target: T1, Aurora A kinase (Homo sapiens, UniProt O14965); assay: Aurora-A (human) kinase assay (Kemptide substrate); format: biochemical; conditions: pIC50 is -log(IC50, M), 15 μM ATP; for IC50: read-out: Kinase Inhibition pIC50 Aurora A kinase (converted)
T1 construct: purchased
T1 sequence (O14965 1-403): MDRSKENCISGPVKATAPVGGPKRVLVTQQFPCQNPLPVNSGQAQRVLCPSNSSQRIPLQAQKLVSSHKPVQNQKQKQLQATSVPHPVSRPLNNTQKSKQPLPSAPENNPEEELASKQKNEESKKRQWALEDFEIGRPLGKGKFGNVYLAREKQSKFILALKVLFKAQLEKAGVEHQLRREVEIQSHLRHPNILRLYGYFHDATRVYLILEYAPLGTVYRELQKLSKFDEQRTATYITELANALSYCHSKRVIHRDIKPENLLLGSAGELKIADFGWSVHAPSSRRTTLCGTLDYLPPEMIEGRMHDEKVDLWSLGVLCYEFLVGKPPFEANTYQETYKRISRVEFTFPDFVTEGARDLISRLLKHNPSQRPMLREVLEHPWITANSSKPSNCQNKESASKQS
Method: Aurora-A (human) kinase assay. This was achieved by measurement of incorporation of radioactive phosphate from ATP into Kemptide substrate (LRRASLG), upon phosphorylation by commercially obtained aurora-A kinase. Assays were performed using 96-well plates and appropriate assay buffers (8 mM MOPS, 0.2 mM EDTA, pH 7.0), into which were added 5-10 ng of active enzyme with 200 μM substrate (Kemptide). The reactions were initiated by addition of Mg/ATP mix (10 mM MgAcetate+15 μM ATP with 30-50 kBq per well of [γ-^33P]-ATP) and mixtures incubated for 40 min at room temperature. Reactions were stopped by addition of 3% phosphoric acid, followed by filtration through p81 filterplates (Whatman Polyfiltronics, Kent, UK). After washing 5 times with 75 mM aq orthophosphoric acid and once in methanol, plates were dried, scintillant added and incorporated radioactivity measured in a scintillation counter (TopCount, Packard Instruments, Pangbourne, Berks, UK). Compounds for kinase assay were made up as 10 mM stocks in DMSO and diluted into 10% DMSO in assay buffer.

Row | Structure (SMILES) | IC50 (CDK2-cycline E) [nM] | IC50 (Aurora A kinase) [nM] | Kinase Inhibition pIC50 Aurora A kinase (Aurora A kinase)
1 | COc1ccc(Nc2nccc(-c3sc(N)nc3C)n2)cc1C [Compound 185, [4-(2-Amino-4-methyl-thiazol-5-yl)-pyrimidin-2-yl]-(4-methoxy-3-methyl-phenyl)-amine] | 251 | 39.8 | –
2 | CCNc1nc(C)c(-c2ccnc(Nc3ccc4c(c3)OCCO4)n2)s1 [Compound 181, (2,3-Dihydro-benzo[1,4]dioxin-6-yl)-[4-(2-ethylamino-4-methyl-thiazol-5-yl)-pyrimidin-2-yl]-amine] | 501 | 200 | –
3 | Cc1nc(N(C)C)sc1-c1ccnc(N)n1 [Compound 88, 4-(2-Dimethylamino-4-methyl-thiazol-5-yl)-pyrimidin-2-ylamine] | – | 1580 | –
4 | COCCNc1nc(C)c(-c2ccnc(Nc3ccc(N4CCOCC4)cc3)n2)s1 [Compound 144, {4-[2-(2-Methoxy-ethylamino)-4-methyl-thiazol-5-yl]-pyrimidin-2-yl}-(4-morpholin-4-yl-phenyl)-amine] | 251 | 100 | –
5 | Cc1nc(NC(C)(C)C)sc1-c1ccnc(Nc2ccc(N3CCOCC3)cc2)n1 [Compound 143, [4-(2-tert-Butylamino-4-methyl-thiazol-5-yl)-pyrimidin-2-yl]-(4-morpholin-4-yl-phenyl)-amine] | 126 | 50.1 | –
6 | CCNc1nc(C)c(-c2ccnc(N)n2)s1 [Compound 86, 4-(2-Ethylamino-4-methyl-thiazol-5-yl)-pyrimidin-2-ylamine] | – | 1000 | –
7 | Cc1nc(-c2ccc(N3CCOCC3)cc2)sc1-c1ccnc(Nc2ccc(N3CCOCC3)cc2)n1 [Compound 147, {4-[4-Methyl-2-(4-morpholin-4-yl-phenyl)-thiazol-5-yl]-pyrimidin-2-yl}-(4-morpholin-4-yl-phenyl)-amine] | – | 501 | –
8 | Cc1nc(NCCc2ccccc2)sc1-c1ccnc(Nc2ccc3c(c2)OCCO3)n1 [Compound 183, (2,3-Dihydro-benzo[1,4]dioxin-6-yl)-[4-(4-methyl-2-phenethylamino-thiazol-5-yl)-pyrimidin-2-yl]-amine] | – | 1260 | –
9 | CCNc1nc(C)c(-c2ccnc(Nc3ccc(N4CCCCC4)cc3)n2)s1 [Compound 194, [4-(2-Ethylamino-4-methyl-thiazol-5-yl)-pyrimidin-2-yl]-(4-piperidin-1-yl-phenyl)-amine] | 794 | 79.4 | –
10 | Cc1nc(C)c(-c2ccnc(Nc3ccc(N4CCOCC4)c(C(N)=O)c3)n2)s1 [Compound 210, 5-[4-(2,4-Dimethyl-thiazol-5-yl)-pyrimidin-2-ylamino]-2-morpholin-4-yl-benzamide] | – | 251 | –
11 | COc1ccc(Nc2nccc(-c3sc(C)nc3C)n2)c(C)c1 [Compound 112, [4-(2,4-Dimethyl-thiazol-5-yl)-pyrimidin-2-yl]-(4-methoxy-2-methyl-phenyl)-amine] | – | 2510 | –
12 | Cc1nc(C)c(-c2ccnc(Nc3ccc(N4CCOCC4)cc3C)n2)s1 [Compound 139, [4-(2,4-Dimethyl-thiazol-5-yl)-pyrimidin-2-yl]-(2-methyl-4-morpholin-4-yl-phenyl)-amine] | – | 1580 | –
13 | Cc1cc(Nc2nccc(-c3sc(CO)nc3C)n2)ccc1N1CCCCC1 [Compound 209, {4-Methyl-5-[2-(3-methyl-4-piperidin-1-yl-phenylamino)-pyrimidin-4-yl]-thiazol-2-yl}-methanol] | – | 251 | –
14 | CCN(C(C)=O)c1nc(C)c(-c2ccnc(N)n2)s1 [Compound 87, N-[5-(2-Amino-pyrimidin-4-yl)-4-methyl-thiazol-2-yl]-N-ethyl-acetamide] | – | 158 | –
15 | CCNc1nc(C)c(-c2ccnc(Nc3ccc(N4CCOCC4)cc3C)n2)s1 [Compound 146, [4-(2-Ethylamino-4-methyl-thiazol-5-yl)-pyrimidin-2-yl]-(2-methyl-4-morpholin-4-yl-phenyl)-amine] | – | 2510 | –
16 | Cc1nc(N(C)c2cccnc2)sc1-c1ccnc(Nc2ccc(N3CCOCC3)cc2)n1 [Compound 153, {4-[4-Methyl-2-(methyl-pyridin-3-yl-amino)-thiazol-5-yl]-pyrimidin-2-yl}-(4-morpholin-4-yl-phenyl)-amine] | – | – | 6.1
17 | COc1cc(Nc2nccc(-c3sc(CO)nc3C)n2)ccc1N1CCOCC1 [Compound 200, {5-[2-(3-Methoxy-4-morpholin-4-yl-phenylamino)-pyrimidin-4-yl]-4-methyl-thiazol-2-yl}-methanol] | 2000 | 39.8 | –
18 | COCCNS(=O)(=O)c1ccc(Nc2nccc(-c3sc(C)nc3C)n2)cc1 [Compound 43, 4-[4-(2,4-Dimethyl-thiazol-5-yl)-pyrimidin-2-ylamino]-N-(2-methoxy-ethyl)-benzenesulfonamide] | 10 | 126 | –
19 | CCN(CC)S(=O)(=O)c1ccc(Nc2nccc(-c3sc(NC)nc3C)n2)cc1 [Compound 52, N,N-Diethyl-4-[4-(4-methyl-2-methylamino-thiazol-5-yl)-pyrimidin-2-ylamino]-benzenesulfonamide] | 1000 | 100 | –
20 | Cc1nc(CO)sc1-c1ccnc(Nc2ccc(N(C)C)cc2)n1 [Compound 132, {5-[2-(4-Dimethylamino-phenylamino)-pyrimidin-4-yl]-4-methyl-thiazol-2-yl}-methanol] | 631 | 100 | –
21 | Cc1nc(C)c(-c2ccnc(Nc3ccc(N4CCOCC4)c(Cl)c3)n2)s1 [Compound 141, (3-Chloro-4-morpholin-4-yl-phenyl)-[4-(2,4-dimethyl-thiazol-5-yl)-pyrimidin-2-yl]-amine] | 794 | 158 | –
22 | Cc1nc(-c2cccnc2)sc1-c1ccnc(Nc2ccc3c(c2)OCCO3)n1 [Compound 180, (2,3-Dihydro-benzo[1,4]dioxin-6-yl)-[4-(4-methyl-2-pyridin-3-yl-thiazol-5-yl)-pyrimidin-2-yl]-amine] | – | 1580 | –
23 | COc1ccc(C)c(Nc2nccc(-c3sc(C)nc3C)n2)c1 [Compound 113, [4-(2,4-Dimethyl-thiazol-5-yl)-pyrimidin-2-yl]-(5-methoxy-2-methyl-phenyl)-amine] | – | 5010 | –
24 | CCNc1nc(C)c(-c2ccnc(Nc3ccc(OC)cc3C)n2)s1 [Compound 111, [4-(2-Ethylamino-4-methyl-thiazol-5-yl)-pyrimidin-2-yl]-(4-methoxy-2-methyl-phenyl)-amine] | – | 3160 | –
25 | CNc1nc(C)c(-c2ccnc(N)n2)s1 [Compound 85, 4-(4-Methyl-2-methylamino-thiazol-5-yl)-pyrimidin-2-ylamine] | – | 398 | –
26 | Cc1nc(C)c(-c2ccnc(Nc3ccc(C)c(N4CCOCC4)c3)n2)s1 [Compound 214, [4-(2,4-Dimethyl-thiazol-5-yl)-pyrimidin-2-yl]-(4-methyl-3-morpholin-4-yl-phenyl)-amine] | – | 251 | –
27 | CCc1cc(-c2nc(C)c(-c3ccnc(Nc4cccc(CNC(C)=O)c4)n3)s2)ccn1 [Compound 105, N-(3-{4-[2-(2-Ethyl-pyridin-4-yl)-4-methyl-thiazol-5-yl]-pyrimidin-2-ylamino}-benzyl)-acetamide] | – | 316 | –
28 | COc1ccc(Nc2nccc(-c3sc(-c4cccnc4)nc3C)n2)cc1C [Compound 186, (4-Methoxy-3-methyl-phenyl)-[4-(4-methyl-2-pyridin-3-yl-thiazol-5-yl)-pyrimidin-2-yl]-amine] | – | 501 | –
29 | CNc1nc(C)c(-c2ccnc(Nc3ccc(N4CCOCC4)cc3C)n2)s1 [Compound 145, [4-(4-Methyl-2-methylamino-thiazol-5-yl)-pyrimidin-2-yl]-(2-methyl-4-morpholin-4-yl-phenyl)-amine] | – | 3980 | –
30 | Cc1ccc(-c2nc(C)c(-c3ccnc(Nc4ccc(N5CCOCC5)cc4)n3)s2)c(C)c1 [Compound 140, {4-[2-(2,4-Dimethyl-phenyl)-4-methyl-thiazol-5-yl]-pyrimidin-2-yl}-(4-morpholin-4-yl-phenyl)-amine] | – | 1580 | –
